Tests used:
Plasmopara viticola = assay: Downy Mildew of Grape (PLASVI), 96 hour protectant; assay type: in vivo; settings: grape vines (cultivar Carignane), sprayed at 100 ppm, inoculated after 96 hours (protectant)
Description: Compound Formulation: […] Final treatment volumes were obtained by adding nine volumes 0.05kOO aqueous Tween-20 or Triton X-100, depending upon the pathogen. Downy Mildew of Grape (Plasmogara viticola-[…]) (96 Hour Protectant): Vines (cultivar Carignane) were grown from seed in a soilless peat-based potting mixture (Metromix) until the seedlings were 10-20 cm tall. These plants were then sprayed to run off with the test compound at a rate of 100 ppm. After 96 hours the test plants were inoculated by spraying with an aqueous sporangia suspension of Plasmopara viticola. The plants were then transferred to the greenhouse until disease developed on the untreated control plants. The following table presents the activity of typical compounds of the present invention when evaluated in these experiments. The effectiveness of the test compounds in controlling disease was rated using the following scale: […]

Erysiphe graminis = assay: Powdery Mildew of Wheat (ERYSGT); assay type: in vivo; settings: wheat (cultivar Monon), inoculated, sprayed at 25 ppm after 48 hours
Description: Compound Formulation: […] Final treatment volumes were obtained by adding nine volumes 0.05kOO aqueous Tween-20 or Triton X-100, depending upon the pathogen. Powdery Mildew of Wheat (Erysiphe graminis-[…]): Wheat (cultivar Monon) was grown in a soilless peat-based potting mixture (Metromix) until the seedlings were 1-2 leaf (BBCH 12). These plants were then inoculated with Erysiphe graminis by dusting spores from stock plants onto the test plants. After 48 hours the plants were sprayed to run off with the test compound at a rate of 25 ppm and then kept in the greenhouse until disease developed on the untreated control plants. The following table presents the activity of typical compounds of the present invention when evaluated in these experiments. The effectiveness of the test compounds in controlling disease was rated using the following scale: […]

SMILES	PLASVI control of plant disease (Plasmopara viticola)	ERYSGT control of plant disease (Erysiphe graminis)
CNC(=O)C(=NOC)c1ccccc1COc1nc(OCc2ccco2)c(Cl)cc1Cl [Compound 3]	++ (++ = 75-100 % control of plant disease)	+ (+ = 25-74% control of plant disease)
CNC(=O)C(=NOC)c1ccccc1COc1nc(OCc2ccco2)c(Cl)cc1Cl [Compound 4]	− (− = 0-24% control of plant disease)	− (− = 0-24% control of plant disease)
CNC(=O)C(=NOC)c1ccccc1COc1cccc(OCC2COC(C)(C(F)(F)F)O2)n1 (centres unmarked) [Compound 6]		++ (++ = 75-100 % control of plant disease)
CNC(=O)C(=NOC)c1ccccc1COc1cccc(OCC2(C)COC2)n1 [Compound 7]	+ (+ = 25-74% control of plant disease)	++ (++ = 75-100 % control of plant disease)
CNC(=O)C(=NOC)c1ccccc1COc1cccc(OCc2ccco2)n1 [Compound 8]	++ (++ = 75-100 % control of plant disease)	− (− = 0-24% control of plant disease)
CNC(=O)C(=NOC)c1ccccc1COc1cccc(OCC2CCCCO2)n1 (centres unmarked) [Compound 9]	++ (++ = 75-100 % control of plant disease)	+ (+ = 25-74% control of plant disease)
CNC(=O)C(=NOC)c1ccccc1COc1cccc(OCC2CCCO2)n1 (centres unmarked) [Compound 10]	+ (+ = 25-74% control of plant disease)	++ (++ = 75-100 % control of plant disease)
CNC(=O)C(=NOC)c1ccccc1COc1cccc(OCC2COC(C(F)(F)F)(C(F)(F)F)O2)n1 (centres unmarked) [Compound 11]	++ (++ = 75-100 % control of plant disease)	
CNC(=O)C(=NOC)c1ccccc1COc1cccc(Sc2nnc(SC)s2)n1 [Compound 12]	− (− = 0-24% control of plant disease)	− (− = 0-24% control of plant disease)
CNC(=O)C(=NOC)c1ccccc1COc1cccc(Sc2cccs2)n1 [Compound 15]	++ (++ = 75-100 % control of plant disease)	++ (++ = 75-100 % control of plant disease)
CCOCCNc1nc(OCc2ccccc2C(=NOC)C(=O)NC)c(Cl)cc1Cl [Compound 23]	++ (++ = 75-100 % control of plant disease)	++ (++ = 75-100 % control of plant disease)
CNC(=O)C(=NOC)c1ccccc1COc1cccc(OCCOC)n1 [Compound 25]	++ (++ = 75-100 % control of plant disease)	++ (++ = 75-100 % control of plant disease)
CCCOC(C)COc1nc(OCc2ccccc2C(=NOC)C(=O)NC)c(Cl)cc1Cl (centres unmarked) [Compound 26]	+ (+ = 25-74% control of plant disease)	++ (++ = 75-100 % control of plant disease)
CNC(=O)C(=NOC)c1ccccc1COc1nc(OCC(C)OC)c(Cl)cc1Cl (centres unmarked) [Compound 28]	++ (++ = 75-100 % control of plant disease)	++ (++ = 75-100 % control of plant disease)
CCCOCCOc1nc(OCc2ccccc2C(=NOC)C(=O)NC)c(Cl)cc1Cl [Compound 29]	++ (++ = 75-100 % control of plant disease)	+ (+ = 25-74% control of plant disease)
CNC(=O)C(=NOC)c1ccccc1COc1cccc(OCC(C)OC)n1 (centres unmarked) [Compound 30]	++ (++ = 75-100 % control of plant disease)	++ (++ = 75-100 % control of plant disease)
CCCOCCOc1cccc(OCc2ccccc2C(=NOC)C(=O)NC)n1 [Compound 31]	++ (++ = 75-100 % control of plant disease)	++ (++ = 75-100 % control of plant disease)
CCCOC(C)COc1cccc(OCc2ccccc2C(=NOC)C(=O)NC)n1 (centres unmarked) [Compound 32]		++ (++ = 75-100 % control of plant disease)
CNC(=O)C(=NOC)c1ccccc1COc1nc(OCCOC)c(Cl)cc1Cl [Compound 33]	++ (++ = 75-100 % control of plant disease)	+ (+ = 25-74% control of plant disease)

SMILES	PLASVI control of plant disease (Plasmopara viticola)	ERYSGT control of plant disease (Erysiphe graminis)
CNC(=O)C(=NOC)c1ccccc1COc1cccc(SCc2ccc(OC)cc2)n1 [Compound 34]	++ (++ = 75-100 % control of plant disease)	++ (++ = 75-100 % control of plant disease)
CCCOCCOc1cccc(OCc2ccccc2C(=NOC)C(=O)NC)n1 [Compound 36]	++ (++ = 75-100 % control of plant disease)	+ (+ = 25-74% control of plant disease)
CNC(=O)C(=NOC)c1ccccc1COc1cccc(Oc2ccc(OC)cc2)n1 [Compound 38]		++ (++ = 75-100 % control of plant disease)
CNC(=O)C(=NOC)c1ccccc1COc1cccc(Sc2cccc(OC)c2)n1 [Compound 39]		++ (++ = 75-100 % control of plant disease)
CNC(=O)C(=NOC)c1ccccc1COc1cccc(Sc2ccccc2OC(F)(F)F)n1 [Compound 41]	++ (++ = 75-100 % control of plant disease)	+ (+ = 25-74% control of plant disease)
CNC(=O)C(=NOC)c1ccccc1COc1cccc(Sc2ccccc2OC)n1 [Compound 42]	++ (++ = 75-100 % control of plant disease)	++ (++ = 75-100 % control of plant disease)
CNC(=O)C(=NOC)c1ccccc1COc1cccc(Sc2ccc(SC)cc2)n1 [Compound 43]	++ (++ = 75-100 % control of plant disease)	− (− = 0-24% control of plant disease)
CCSCCOc1cccc(OCc2ccccc2C(=NOC)C(=O)NC)n1 [Compound 45]	++ (++ = 75-100 % control of plant disease)	+ (+ = 25-74% control of plant disease)
CCCCOCCOc1cccc(OCc2ccccc2C(=NOC)C(=O)NC)n1 [Compound 46]	++ (++ = 75-100 % control of plant disease)	+ (+ = 25-74% control of plant disease)
CCCCSCCOc1cccc(OCc2ccccc2C(=NOC)C(=O)NC)n1 [Compound 47]	++ (++ = 75-100 % control of plant disease)	++ (++ = 75-100 % control of plant disease)
CCCCSCCOc1cccc(OCc2ccccc2C(=NOC)C(=O)NC)n1 [Compound 48]	+ (+ = 25-74% control of plant disease)	− (− = 0-24% control of plant disease)
CNC(=O)C(=NOC)c1ccccc1COc1cccc(OCCOc2ccccc2)n1 [Compound 49]	++ (++ = 75-100 % control of plant disease)	++ (++ = 75-100 % control of plant disease)
CCSCCSc1cccc(OCc2ccccc2C(=NOC)C(=O)NC)n1 [Compound 50]	++ (++ = 75-100 % control of plant disease)	− (− = 0-24% control of plant disease)
CNC(=O)C(=NOC)c1ccccc1COc1cccc(OCCOCc2ccccc2)n1 [Compound 51]	++ (++ = 75-100 % control of plant disease)	++ (++ = 75-100 % control of plant disease)
CCCOCCOc1cccc(OCc2c(F)cccc2C(=NOC)C(=O)NC)n1 [Compound 59]	++ (++ = 75-100 % control of plant disease)	
CCOCCOc1cccc(OCc2c(Cl)cccc2C(=NOC)C(=O)NC)n1 [Compound 63]	++ (++ = 75-100 % control of plant disease)	
CCOc1cccc(Oc2cccc(OCc3ccccc3C(=NOC)C(=O)NC)n2)c1 [Compound 67]	++ (++ = 75-100 % control of plant disease)	
CCCOc1ccc(Sc2cccc(OCc3ccccc3C(=NOC)C(=O)NC)n2)cc1 [Compound 87]		++ (++ = 75-100 % control of plant disease)

Source: patent US6369083B1, “2-methoxyimino-2 (pyrinyloxymethyl) phenyl acetamides with polyether derivatives on the pyridine ring” (Dow AgroSciences LLC, priority 1998, dated 2002)
